Where two headings read alike, the source gives them in different places.

In series [1] the test system is 1321N1 astrocyte cell line. The series can be described thus: 1321N1 oxidative stress assay (serum withdrawal, DCF). The following applies: for Emax: 1321-N1, 24 h, read-out: 1321N1 oxidative stress assay Max reduction.
Method: (§1) Media were then replaced with serum-free, phenol-free media for 5 h.
Series [2] has as its system C6 astrocyte cell line. Description: C6 oxidative stress assay (serum withdrawal, DCF). The conditions noted are these: for IC50: read-out: C6 oxidative stress assay IC50; for Emax: 24 h, read-out: C6 oxidative stress assay Max reduction.
Method: as §1
For series [3], the system named is 1321N1 astrocyte cell line.
Method: as §1
Series [4] has as its system NSC34 cells.
Method: as §1
For series [5], the system named is C6 astrocyte cell line.
Method: as §1
The next series deals with Nrf2-ARE pathway. The series can be described thus: ARE reporter assay in CHO 4xARE-TK-GFP cells (Spectrum library hits). For orientation: In a reporter assay the amount or activity of a reporter protein is the signal.
Series [6] has as its system NSC34 cells. Description: NSC34 oxidative stress assay (serum withdrawal, DCF). The following applies: for Emax: Mus musculus, NSC-34, 24 h, read-out: NSC34 oxidative stress assay Max reduction.
Method: as §1
Setting [7] is: maximum % inhibition of DCF signal.
Where [8] appears, read: Homo sapiens, 1321-N1, read-out: 1321N1 oxidative stress assay IC50.
The mark [9] stands for this setting: lowest dose at which a reduction in GFP fluorescence was observed.

Turning to `C[C@@H]1C(=O)O[C@H]2[C@H]1CC[C@@]1(C)C=CC(=O)[C@@]3(C)O[C@@]213` [Epoxy(4,5α)-4,5-dihydrosantonin], in series [1] (setting [7]), the “1321N1 oxidative stress assay Max reduction” value is listed as 63%. Besides, the IC50 in series [1] (read-out: 1321N1 oxidative stress assay IC50, 24-h preconditioning, 6-h serum withdrawal, DCF fluorescence) is 0.662 µM; with C6 astrocyte cell line [2] (24-h preconditioning, 6-h serum withdrawal, DCF fluorescence), 2.13 µM. Moreover, the “C6 oxidative stress assay Max reduction” value with C6 astrocyte cell line [2] (setting [7]) was 62%. Moreover, the “1321N1 oxidative stress assay Toxic dose” value in series [3] was “None”. The “NSC34 oxidative stress assay Toxic dose” value in the series with NSC34 cells [4] was 3 µM. Besides, in the series on C6 astrocyte cell line [5], the “C6 oxidative stress assay Toxic dose” value is recorded as “None”. For the same compound, the “Fold GFP induction” value with Nrf2-ARE pathway is given as 2.91 fold. This compound returned a Toxic dose in the series on Nrf2-ARE pathway of 100 µM. Further, in the series on Nrf2-ARE pathway (CHO ARE reporter, 7-point concentration response), the EC50 is 18.2 µM. In the series with NSC34 cells [6] (maximum % inhibition of DCF signal, negative = prooxidant), the “NSC34 oxidative stress assay Max reduction” value is listed as 0%.

For the compound `Oc1ccc(O)cc1` [Hydroquinone, reference compound], the Emax came to 80% in series [1] (Homo sapiens); 67% with C6 astrocyte cell line [2] (Rattus norvegicus, Astrocyte); 0% in the series with NSC34 cells [6]. Further, the IC50 in series [1] (setting [8]) turned out to be 3.38 µM; with C6 astrocyte cell line [2] (Rattus norvegicus, Astrocyte), 7.07 µM. The “1321N1 oxidative stress assay Toxic dose” value in series [3] is “None”. The “NSC34 oxidative stress assay Toxic dose” value with NSC34 cells [4] was “None”. In addition, the “C6 oxidative stress assay Toxic dose” value in the series on C6 astrocyte cell line [5] was “None”. In the series on Nrf2-ARE pathway (Cricetulus griseus), this compound returned an EC50 of 3.07 µM. Further, in the series with Nrf2-ARE pathway (setting [9]), the Toxic dose turned out to be 100 µM.

With `CC(=O)CCC(=O)O` [Levulinic acid], the Emax in series [1] (Homo sapiens) is 58%; with C6 astrocyte cell line [2] (Rattus norvegicus, Astrocyte), 62%; in the series with NSC34 cells [6], 15%. The IC50 came out at 3.31 µM in series [1] (setting [8]) and 7.69 µM in the series on C6 astrocyte cell line [2] (Rattus norvegicus, Astrocyte). Also, the “1321N1 oxidative stress assay Toxic dose” value in series [3] is listed as “None”. Also, the “NSC34 oxidative stress assay Toxic dose” value with NSC34 cells [4] is recorded as “None”. Also, the “C6 oxidative stress assay Toxic dose” value in the series with C6 astrocyte cell line [5] is listed as “None”. In the series on Nrf2-ARE pathway (Cricetulus griseus), this compound returned a concentration for a half-maximal effect (EC50) of 12 µM. In the series with Nrf2-ARE pathway (setting [9]), the Toxic dose entry is recorded as “None”.

As to `O=C(CCBr)N1CCN(C(=O)CCBr)CC1` [Pipobroman, reference compound], the Emax in series [1] (Homo sapiens) is 19%; in the series on C6 astrocyte cell line [2] (Rattus norvegicus, Astrocyte), 71%; in the series with NSC34 cells [6], 30%. Further, the IC50 in series [1] (setting [8]) came to 3.16 µM; with C6 astrocyte cell line [2] (Rattus norvegicus, Astrocyte) it was 11 µM. Further, in series [3] (human), the “1321N1 oxidative stress assay Toxic dose” value amounted to 10 µM. The “NSC34 oxidative stress assay Toxic dose” value with NSC34 cells [4] was “none”. Also, the “C6 oxidative stress assay Toxic dose” value in the series with C6 astrocyte cell line [5] is recorded as “none”. For the same compound, the EC50 in the series on Nrf2-ARE pathway (Cricetulus griseus) was determined as 10 µM. In addition, the Toxic dose with Nrf2-ARE pathway (setting [9]) is 100 µM.

Regarding `C=C(C)C1(O)OC(=O)C=C1OC` (stereo not drawn) [Penicillic acid], the Emax in series [1] (Homo sapiens) is 45%; in the series with C6 astrocyte cell line [2] (Rattus norvegicus, Astrocyte), 68%; in the series with NSC34 cells [6] it was 9%. The half-maximal inhibitory concentration (IC50) with C6 astrocyte cell line [2] (Rattus norvegicus, Astrocyte) is 4.62 µM. Besides, in series [3], the “1321N1 oxidative stress assay Toxic dose” value was “none”. Moreover, in the series with NSC34 cells [4], the “NSC34 oxidative stress assay Toxic dose” value was “none”. Also, the “C6 oxidative stress assay Toxic dose” value with C6 astrocyte cell line [5] was “none”. In the series with Nrf2-ARE pathway (Chinese hamster), this compound gave a Toxic dose of 100 µM. This compound also registered a concentration for a half-maximal effect (EC50) in the series with Nrf2-ARE pathway (Cricetulus griseus) of 14.9 µM. The maximal fold induction in the series on Nrf2-ARE pathway (Cricetulus griseus, CHO, 24 h, read-out: Fold GFP induction) is 2.64.

A word on the IC50: it is the point on the concentration scale where inhibition reaches its midpoint. As usually defined, the EC50 is the concentration that produces a half-maximal response.

Source of the values: PMC3684770 (Free Radical Biology & Medicine, 2013).
